This note sets out measurements from patent US20080287445A1, “Prokineticin 2 receptor antagonists” (priority 2005, published 2008).

Molecules are shown by their SMILES. Where “and” joins values, the source holds several entries; their conditions need not be identical. Equal values may be shown once.

The experiment concerns the target T1, GPR73 (prokineticin 1 receptor) (Homo sapiens, UniProt Q8TCW9).
T1 construct: expressed in transfected cells; host or cells: HEK 293
The experiment is described as follows: PK1 functional assay: Ca2+ mobilization screening for PK1 antagonists on the FLIPR. The class given is cell-based. The note with it: HEK 293 GPR73 cells, multiple values = multiple testing; for inhibition at 10 µM: HEK293, 10 μM compound, read-out: Ca^2+ Mobilization % Inh @ 10 μM; for IC50: PK1 ligand preparation at its EC50, read-out: Ca^2+ Mobilization IC50; for Ca^2+ Mobilization % Inh @ 10 μM: 10 μM compound. The procedure, abridged:
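HEK293 cells expressing human GPR73 were loaded with Calcium Plus dye, then on FLIPR given compound for 4 min 15 s before PK1 ligand at its predetermined EC50. Baseline-subtracted fluorescence over 1 min 45 s gave percent inhibition versus maximal signal; IC50 fitted.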

T1 sequence (Q8TCW9 whole entry, species assumed): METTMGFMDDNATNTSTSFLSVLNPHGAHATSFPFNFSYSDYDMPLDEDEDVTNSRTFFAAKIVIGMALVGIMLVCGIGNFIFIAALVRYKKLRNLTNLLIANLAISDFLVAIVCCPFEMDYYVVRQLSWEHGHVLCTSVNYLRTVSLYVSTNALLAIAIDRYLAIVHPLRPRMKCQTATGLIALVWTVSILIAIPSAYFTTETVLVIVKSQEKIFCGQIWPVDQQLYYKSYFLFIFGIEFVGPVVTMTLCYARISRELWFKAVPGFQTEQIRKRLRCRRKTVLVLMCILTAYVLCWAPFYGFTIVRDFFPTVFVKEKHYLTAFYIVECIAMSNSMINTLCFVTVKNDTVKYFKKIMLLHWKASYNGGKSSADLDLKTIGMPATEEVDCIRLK

Take `COc1ccc(Cn2c(NCc3cccnc3)nc(=O)n(Cc3ccc(Cl)c(Cl)c3)c2=O)cc1` [Cpd 2]: the inhibition at 10 µM amounted to 47% and the IC50 is over 10000 nM.

As for `COc1ccc(Cn2c(=O)nc(NCc3cnc(C)cc3C)n(Cc3ccc(OC(F)F)cc3)c2=O)cc1` [Cpd 193], the “Ca^2+ Mobilization % Inh @ 10 μM” value worked out at 39% and the IC50 is over 10000 nM.

`COc1ccc(Cn2c(NCc3cccnc3N)nc(=O)n(Cc3ccc(OC(F)F)cc3)c2=O)cc1` [Cpd 84]: the inhibition at 10 µM amounted to 70% and the IC50 stood at 1220 nM.

Consider `COc1ccc(Cn2c(NCc3cccnc3N)nc(=O)n(Cc3ccc4[nH]ccc4c3)c2=O)cc1` [Cpd 230], for which the inhibition at 10 µM worked out at 66% and the IC50 came out at 2750 nM.

As for `COc1ccc(Cn2c(NCc3ccncc3)nc(=O)n(Cc3ccc(OC)cc3)c2=O)cc1` [Cpd 41], the inhibition at 10 µM is 72% and the concentration for half-maximal inhibition (IC50) is 1060 nM.

Take `Cc1cc(C)c(CNc2nc(=O)n(Cc3ccc(-n4cccn4)cc3)c(=O)n2Cc2ccc(OC(F)F)cc2)cn1` [Cpd 158]: the inhibition at 10 µM worked out at 62% and the half-inhibitory concentration (IC50) was 3840 nM.

For `COc1ccc(Cn2c(NCc3cnc(C)nc3N)nc(=O)n(Cc3ccc(OC)cc3)c2=O)cc1` [Cpd 248], the inhibition at 10 µM came out at 103% and the IC50 worked out at 34 nM.

With `COc1ccc(Cn2c(NCc3c(C)cc(C)nc3N)nc(=O)n(Cc3ccc4c(c3)nnn4C)c2=O)cc1` [Cpd 222, 6-[(2-Amino-4,6-dimethyl-pyridin-3-ylmethyl)-amino]-1-(4-methoxy-benzyl)-3-(1-methyl-1H-benzotriazol-5-ylmethyl)-1H-[1,3,5]triazine-2,4-dione], the inhibition at 10 µM was 98% and the IC50 was found to be 60 nM.

On to `COc1ccc(Cn2c(=O)nc(NCc3cccnc3N)n(Cc3ccc(C(N)=O)cc3)c2=O)cc1` [Cpd 52], for which the inhibition at 10 µM was 94% and the IC50 was 973 nM.

In the case of `COc1ccc(Cn2c(CCc3cccc(N)n3)cc(=O)n(Cc3ccc(OC)cc3)c2=O)cc1` [Cpd 223, 6-[2-(6-Amino-pyridin-2-yl)-ethyl]-1,3-bis-(4-methoxy-benzyl)-1H-pyrimidine-2,4-dione], the inhibition at 10 µM is 53% and the IC50 came out at 5680 nM.

As for `Nc1ncccc1CNc1nc(=O)n(Cc2ccc3[nH]ccc3c2)c(=O)n1Cc1ccc(OC(F)F)cc1` [Cpd 228], the inhibition at 10 µM came to 63% and the IC50 amounted to 3400 nM.

For the molecule `COCCCCCn1c(NCc2c(C)cc(C)nc2N)nc(=O)n(Cc2ccc(Cl)c(Cl)c2)c1=O` [Cpd 255], the inhibition at 10 µM stood at 99% and the IC50 worked out at 78 nM.

Turning to `Cc1cc(C)c(CNc2nc(=O)n(Cc3ccc(F)cc3)c(=O)n2Cc2ccc(OC(F)F)cc2)cn1` [Cpd 160, 1-(4-Difluoromethoxy-benzyl)-6-[(4,6-dimethyl-pyridin-3-ylmethyl)-amino]-3-(4-fluoro-benzyl)-1H-[1,3,5]triazine-2,4-dione], the inhibition at 10 µM amounted to 71% and the IC50 worked out at 628 nM.

In the case of `COc1ccc(Cn2c(NCc3cnc(C)cc3C)nc(=O)n(Cc3ccc4occc4c3)c2=O)cc1` [Cpd 133], the inhibition at 10 µM is 88% and the IC50 stood at 582 nM.

Regarding `COc1ccc(Cn2c(=O)nc(NCc3cccnc3N)n(Cc3cccc(C#N)c3)c2=O)cc1` [Cpd 81], the inhibition at 10 µM was 36% and the IC50 is over 10000 nM.

On to `CNc1ncccc1CNc1nc(=O)n(Cc2ccc(F)cc2)c(=O)n1Cc1ccc(OC)cc1` [Cpd 14], for which the inhibition at 10 µM came out at 90% and the IC50 was 793 nM.

For the molecule `COc1ccc(Cn2c(NCc3c(C)cc(C)nc3N)nc(=O)n(Cc3ccc(OC)cc3)c2=O)cc1` [Cpd 97, 6-[(2-Amino-4,6-dimethyl-pyridin-3-ylmethyl)-amino]-1,3-bis-(4-methoxy-benzyl)-1H-[1,3,5]triazine-2,4-dione], the “Ca^2+ Mobilization % Inh @ 10 μM” value was 96% and 98%; the inhibition at 10 µM came to 90%; the IC50 was 6 nM and 7 nM and 19 nM.

Turning to `COc1ccc(Cn2c(CCc3cccnc3)cc(=O)n(Cc3ccc(OC)cc3)c2=O)cc1` [Cpd 169], the “Ca^2+ Mobilization % Inh @ 10 μM” value is recorded as 86%; the inhibition at 10 µM worked out at 78%; the IC50 is 226 nM and 973 nM.

For the molecule `Cc1cc(C)c(CNc2nc(=O)n(Cc3ccc4c(c3)CCO4)c(=O)n2Cc2ccc3c(c2)CCO3)c(N)n1` [Cpd 185, 6-[(2-Amino-4,6-dimethyl-pyridin-3-ylmethyl)-amino]-1,3-bis-(2,3-dihydro-benzofuran-5-ylmethyl)-1H-[1,3,5]triazine-2,4-dione], the “Ca^2+ Mobilization % Inh @ 10 μM” value is 94% and 98%; the inhibition at 10 µM worked out at 92%; the IC50 was 15 nM and 80 nM and 118 nM.

Consider `COc1ccc(Cn2c(NCc3cccnc3N)nc(=O)n(Cc3cccc(F)c3)c2=O)cc1` [Cpd 55], for which the inhibition at 10 µM turned out to be 44% and the IC50 is over 10000 nM.

In the case of `CCc1ccccc1Cn1c(NCc2cccnc2N)nc(=O)n(Cc2ccc(OC)cc2)c1=O` [Cpd 86], the inhibition at 10 µM was determined as 31% and the IC50 is over 10000 nM.

As to `Cc1cc(C)c(CNc2nc(=O)n(Cc3ccc4c(c3)OCCO4)c(=O)n2Cc2ccc(OC(F)F)cc2)cn1` [Cpd 210], the inhibition at 10 µM was found to be 39% and the IC50 was over 10000 nM.

As for `COc1ccc(Cn2c(NCc3cccnc3NCc3ccco3)nc(=O)n(Cc3ccc(OC)cc3)c2=O)cc1` [Cpd 69], the inhibition at 10 µM is 93% and the IC50 stood at 337 nM.

Turning to `COc1ccc(Cn2c(NCc3c[n+]([O-])c(C)cc3C)nc(=O)n(Cc3ccc(OC)cc3)c2=O)cc1` [Cpd 118], the inhibition at 10 µM was 80% and the IC50 is 1370 nM.

`Cc1ccc(Cn2c(=O)nc(NCc3cnc(C)cc3C)n(Cc3ccc(OC(F)F)cc3)c2=O)cc1` [Cpd 161]: the inhibition at 10 µM is 53% and the IC50 was 4780 nM.

On to `Nc1ncccc1CNc1nc(=O)n(Cc2ccc(F)cc2)c(=O)n1Cc1ccc(OC(F)(F)F)cc1` [Cpd 91], for which the inhibition at 10 µM was found to be 59% and the concentration for half-maximal inhibition (IC50) was determined as 3980 nM.

As to `COCCCCCn1c(NCc2c(C)cc(C)nc2N)nc(=O)n(Cc2ccccc2)c1=O` [Cpd 254], the inhibition at 10 µM was determined as 96% and the IC50 is 98 nM.

Regarding `CCc1ccc(Cn2c(NCc3cccnc3N)nc(=O)n(Cc3ccc(OC)cc3)c2=O)cc1` [Cpd 63], the inhibition at 10 µM turned out to be 83% and the IC50 is 271 nM.

As for `COCCNc1ncccc1CNc1nc(=O)n(CC2COc3ccccc3O2)c(=O)n1Cc1ccc(OC)cc1` (centres unmarked) [Cpd 73], the inhibition at 10 µM amounted to 58% and the IC50 is 5930 nM.

Take `COc1ccc(Cn2c(CCc3cnccc3N)cc(=O)n(Cc3ccc(OC)cc3)c2=O)cc1` [Cpd 214]: the inhibition at 10 µM was determined as 53% and the IC50 is 7160 nM.

For `COc1ccc(Cn2c(NCc3cc(-c4ccccc4)cnc3N)nc(=O)n(Cc3ccc(OC)cc3)c2=O)cc1` [Cpd 57], the inhibition at 10 µM came out at 59% and the IC50 worked out at 4770 nM.

As for `COc1ccc(Cn2c(=O)nc(NCc3cccnc3N)n(Cc3ccc4sccc4c3)c2=O)cc1` [Cpd 140], the inhibition at 10 µM turned out to be 91% and the IC50 worked out at 192 nM.

For `Cc1cc(-c2ccc(F)cc2)nc(N)c1CNc1nc(=O)n(Cc2ccc3c(c2)CCO3)c(=O)n1Cc1ccc(OC(F)F)cc1` [Cpd 262], the inhibition at 10 µM turned out to be 0.89% and the IC50 was over 10000 nM.

`Cc1cc(C)c(CNc2nc(=O)n(Cc3ccc4snnc4c3)c(=O)n2Cc2ccc(OC(F)F)cc2)cn1` [Cpd 196]: the inhibition at 10 µM is 84% and the IC50 is 451 nM.

Take `COc1ccc(Cn2c(OCc3cccnc3N)cc(=O)n(Cc3ccc(OC)cc3)c2=O)cc1` [Cpd 190]: the inhibition at 10 µM is 79% and the IC50 came out at 502 nM.

In the case of `CCOc1ccc(Cn2c(=O)nc(NCc3cccnc3N)n(Cc3ccc(OC)cc3)c2=O)cc1` [Cpd 46], the inhibition at 10 µM was 80% and the IC50 amounted to 522 nM.

With `COc1ccc(Cn2c(NCc3cccnc3N3CCCC3)nc(=O)n(Cc3ccc(F)cc3)c2=O)cc1` [Cpd 11], the inhibition at 10 µM stood at 54% and the 50% inhibitory concentration (IC50) amounted to 6790 nM.

On to `COc1ccc(Cn2c(NCc3ccc(C)nc3)nc(=O)n(Cc3ccc(OC)cc3)c2=O)cc1` [Cpd 59], for which the inhibition at 10 µM is 94% and the IC50 came to 178 nM.

In the case of `COc1ccc(Cn2c(CCc3cccnc3C(N)=O)cc(=O)n(Cc3ccc(OC)cc3)c2=O)cc1` [Cpd 189], the inhibition at 10 µM worked out at 38% and the IC50 is over 10000 nM.

Turning to `COc1ccc(Cn2c(=O)nc(NCc3cccnc3N)n(Cc3ccc(OC)nc3)c2=O)cc1` [Cpd 95], the inhibition at 10 µM stood at 92% and the IC50 stood at 84 nM.

With `COc1ccc(Cn2c(NCc3cccnc3N)nc(=O)n(CCc3c[nH]c4ccccc34)c2=O)cc1` [Cpd 119], the inhibition at 10 µM amounted to 40% and the IC50 was over 10000 nM.

On to `Nc1cc(Cn2c(=O)nc(NCc3cccnc3N)n(Cc3ccc(OC(F)F)cc3)c2=O)ccc1O` [Cpd 268], for which the inhibition at 10 µM was found to be 24% and the IC50 is over 10000 nM.

On to `COCCCCCn1c(NCc2cccnc2N)nc(=O)n(Cc2ccc(Cl)cc2)c1=O` [Cpd 256], for which the inhibition at 10 µM is 99% and the IC50 worked out at 118 nM.

With `Cc1cc(C)c(CNc2nc(=O)n(Cc3ccc4c(c3)OCO4)c(=O)n2Cc2ccc(OC(F)F)cc2)cn1` [Cpd 208], the inhibition at 10 µM was found to be 73% and the IC50 was determined as 1270 nM.

In the case of `COc1ccc(Cn2c(NCc3cccnc3N3CCNCC3)nc(=O)n(Cc3ccc(OC)cc3)c2=O)cc1` [Cpd 12], the inhibition at 10 µM was 74% and the IC50 turned out to be 1290 nM.

`COc1ccc(Cn2c(=O)nc(NCc3cnc(C)cc3C)n(Cc3ccccc3OC(F)(F)F)c2=O)cc1` [Cpd 105]: the inhibition at 10 µM was 85% and the IC50 was found to be 437 nM.
